{
  "source": "patent US6492137B1",
  "about": "“Response element compositions and assays employing same” (The Salk Institute for Biological Studies, priority 1989, dated 2002)",
  "molecules": {"B1": {"name": "DR-3 (dsDNA)", "DNA 1": "AGCTTCAGGTCAAGGAGGTCAGAGAGCT", "DNA 2": "AGCTCTCTGACCTCCTTGACCTGAAGCT"}, "B2": {"name": "DR-4 (dsDNA)", "DNA 1": "AGCTTCAGGTCACAGGAGGTCAGAGAGCT", "DNA 2": "AGCTCTCTGACCTCCTGTGACCTGAAGCT"}},
  "key": {"TRβ": {"target": "T1, TRβ (Homo sapiens, UniProt P10828)", "T1 sequence (P10828 1-461)": "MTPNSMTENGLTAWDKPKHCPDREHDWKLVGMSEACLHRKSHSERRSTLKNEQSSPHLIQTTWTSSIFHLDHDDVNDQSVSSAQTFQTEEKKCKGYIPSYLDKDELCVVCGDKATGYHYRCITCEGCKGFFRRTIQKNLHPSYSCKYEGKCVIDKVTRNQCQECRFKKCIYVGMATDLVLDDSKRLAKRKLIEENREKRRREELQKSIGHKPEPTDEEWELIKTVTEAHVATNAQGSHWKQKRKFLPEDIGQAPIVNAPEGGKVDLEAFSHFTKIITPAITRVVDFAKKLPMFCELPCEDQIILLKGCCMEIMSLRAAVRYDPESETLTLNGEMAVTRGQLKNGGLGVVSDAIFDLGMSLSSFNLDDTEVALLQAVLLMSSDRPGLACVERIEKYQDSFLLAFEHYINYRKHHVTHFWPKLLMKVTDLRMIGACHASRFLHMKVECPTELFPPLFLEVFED", "experiment": "Gel retardation DNA-binding assay with TRβ-expressing COS cell extracts", "set-up": "expressed in transfected cells; host or cells: COS cells (whole-cell extract)", "conditions": "gel retardation; TRβ COS cell extract", "experimental": "For DNA binding assays, COS cells were cultured in DMEM with 10% calf bovine serum and transfected by the calcium phosphate method with 20 μg of the pCMX receptor expression plasmid for 6 hours followed by a glycerol shock. After incubating the transfected COS cells for another 48 hours, the cells were harvested to prepare extracts for the DNA binding assay, carried out as described by Damm et al., Nature 339: 593-597 (1989). The extracts were made in 20 mM HEPES (pH 7.4), 0.4 M KCl, 2 mM DTT and 20% glycerol. A similar method was employed to prepare a whole cell extract from F9 stem cells. For the binding, 5 μg (COS) or 10 μg (F9) of proteins was incubated on ice for 20 minutes, first in 20 mM HEPES, 80 mM KCl, 1 mM DTT, 0.1% NP40, 2.5 μg of poly dI/dC, and 10% glycerol (cold competitor oligonucleotides, when included, were added during this pre-incubation period). Then 40 fmole of ^32P-labeled oligonucleotide probe (1-2×10^5 cpm, prepared by filling-in reaction using Klenow polymerase in the presence of α-^32P-dCTP) was added to the reaction mixture, followed by incubation at room temperature for 30 minutes. The receptor-DNA complexes were resolved by electrophoresis through 5% polyacrylamide gel containing 5% glycerol at 6 V/cm at room temperature.\nOligonucleotides listed in FIG. 3 were used as a probe to test specific DNA-binding of the RARα and TRβ in a gel retardation assay.\nUsing the mobility shift assay, the DNA-binding capacity of extracts from COS cells expressing TRβ and RARα to these sequences was also tested."}, "RARα": {"target": "T2, RARα (Homo sapiens, UniProt P10276)", "T2 sequence (P10276 1-462)": "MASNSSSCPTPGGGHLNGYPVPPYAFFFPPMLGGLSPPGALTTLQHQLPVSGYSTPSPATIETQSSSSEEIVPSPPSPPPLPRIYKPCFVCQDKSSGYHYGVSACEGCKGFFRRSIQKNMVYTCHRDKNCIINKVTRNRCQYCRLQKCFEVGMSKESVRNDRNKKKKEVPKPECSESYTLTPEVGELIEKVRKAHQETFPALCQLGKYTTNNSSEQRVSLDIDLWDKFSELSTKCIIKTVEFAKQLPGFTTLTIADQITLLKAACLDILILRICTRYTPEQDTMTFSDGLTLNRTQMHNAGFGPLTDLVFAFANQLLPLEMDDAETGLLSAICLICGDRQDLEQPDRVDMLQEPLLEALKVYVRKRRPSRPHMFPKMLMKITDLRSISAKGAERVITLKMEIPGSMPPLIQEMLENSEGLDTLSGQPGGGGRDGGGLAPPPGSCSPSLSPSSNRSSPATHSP", "experiment": "ΔSV-CAT reporter cotransfection assay in CV-1 cells with RARα expression plasmid, ±RA", "assay_type": "cell-based", "set-up": "expressed in transfected cells; host or cells: CV-1 (monkey kidney)", "conditions": "RA 1 μM", "description": "Receptor expression plasmids used in the following cotransfection assays have been described previously (pRShTRβ [see Thompson, et al., Proc. Natl. Acad. Sci. U.S.A. 86: 3494-3498 (1989)]; pRShRARα [see Giguere, et al., Nature 330: 624-629 (1987)]; pRShRARβ and pRshRARγ [see Ishikawa, et al., Mol. Endocrinol, 4: 837-844 (1990)]; and pRShVDR, [Schule, et al., Cell 61: 497-504 (1990)]. A basal reporter plasmid ΔSV-CAT was constructed by replacing the TK promoter in TK-CAT [Damm, et al., Nature 339: 593-597 (1989)] with the SphI-HindIII fragment of the SV40 early promoter. All of the recombinant CAT reporter plasmids used herein harbor a single copy of the indicated oligonucleotides at the unique HindIII site upstream of the SV40 promoter. Identity of the inserted oligonucleotides was confirmed by sequencing. To improve production of receptor proteins in COS cells, a new eukaryotic expression vector pCMX was prepared by modifying the plasmid CDM8 [Seed, B., Nature 329: 840-842 (1987)]. The CDM8 was cut with MluI and StuI in order to release the DNA fragment encoding the CMV/T7 promoter, SV40 small t intron/poly A signal, polyoma virus enhancer/origin, and SV40 enhancer/origin. The resulting fragment was ligated to a larger fragment of PvuII-digested PUC19. An internal deletion was introduced between unique BamHI and BclI sites present in the DCM8 portion. The stuffer sequence flanked by XbaI sites was replaced with a synthetic polylinker coding for 5′-KpnI/Asp718-EcoRV-BamHI -MscI-NheI-3′, followed by a stretch of 5′-[…]-3′ (SEQ ID NO:48) which can function as a universal termination signal for protein translation. The coding sequence of the luciferase [de Wet, et al., Mol. Cell. Biol. 7: 725-737 (1987)] and human TRβ, RARα, and VDR was placed in the polylinker region of the pCMX, generating pCMX-LUC, Pcmx-Htrβ, pCMX-hRARα, and pCMX-hVDR, respectively. The translation start site of the RARα was modified to […] by attaching the synthetic linker encoding a consensus translation start signal [Hollenberg, et al., Cell 55: 899-906 (1988)]. […]"}, "RAR": {"test_system": "RAR", "experiment": "Delta-MTV constructs, RA induction in CV-1 cells with cotransfected RAR expression vector", "assay_type": "cell-based", "conditions": "Delta-MTV promoter; with vs without RAR expression vectors", "experimental": "Inspection of the sequences of βRE1, βRE2, and βRE3 (see FIG. 2b) identifies a tandem repeat of the 6 bp motif. The center to center separation of 11 bp between these repeats is one turn of the DNA helix. […] Apparently, a single half site element of the RARβ gene would reciprocally be responsive to the TR, ER, and/or other members of the receptor superfamily.\nCells were transfected in 10 cm dishes with 10 μg of DNA containing 5 μg of reporter plasmid, 1-2 μg of either RSV-LUC (a), or RSV-βGAL or pCH110 (c and d), pGEM4 as carrier DNA, and for the experiments shown in a and d, 1 μg of RSV-RAR expression vector or the same amount of an RSV vector generating a nonsense transcript. Cells were harvested 1 day after addition of retinoic acid. All CAT assays represent equivalent amounts of β-galactosidase activity; β-GAL assays were normalized to luciferase activity."}, "[1]": {"target": "T3, Vitamin D receptor (VDR), in CV-1 cells (Homo sapiens, UniProt P11473 P11473:1-427)", "T3 sequence": "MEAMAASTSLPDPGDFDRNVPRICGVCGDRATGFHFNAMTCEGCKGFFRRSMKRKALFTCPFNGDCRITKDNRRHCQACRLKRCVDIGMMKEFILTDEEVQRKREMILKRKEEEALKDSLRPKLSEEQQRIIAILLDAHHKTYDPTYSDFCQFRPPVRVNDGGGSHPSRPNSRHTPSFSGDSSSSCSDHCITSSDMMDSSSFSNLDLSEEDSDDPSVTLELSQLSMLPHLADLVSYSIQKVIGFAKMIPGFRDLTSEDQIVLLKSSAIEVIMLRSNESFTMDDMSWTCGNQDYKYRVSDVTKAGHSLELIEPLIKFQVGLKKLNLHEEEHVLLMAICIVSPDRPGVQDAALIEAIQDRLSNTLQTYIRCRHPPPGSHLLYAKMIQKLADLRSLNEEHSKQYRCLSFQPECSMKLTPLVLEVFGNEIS", "experiment": "cell_activity; vitamin D3 100 nM, CV-1", "conditions": "tags: pRShVDR; label: 32P; 5'-agct overhangs", "experimental": "(§1) For cotransfection assays, a monkey kidney cell line CV-1 was kept in Dulbecco's modified Eagle's medium (DMEM) supplemented with 10% charcoal-resin double split calf bovine serum. Transfections were performed via calcium-phosphate precipitation method as described by Umesono, et al. in Cell 57: 1139–1146 (1989), with 0.5 μg of a pRS receptor expression plasmid, 1.0 μg of a reporter CAT plasmid, 5 μg of pRAS-βGAL [Umesono, et al., Cell 57: 1139–1146 (1989)] as an internal control, and 8.5 μg of carrier plasmid pUC19. The cells were transfected for 8 hours; after washing the DNA precipitates, the cells were then incubated for an additional 36 hours with or without the ligand (T_3, 100 nM; RA, 1 μM; 1,25-(OH)_2 vitamin D_3, 100 nM). Cell extracts were prepared for βGAL and CAT assays, as described by Umesono, et al., supra. Transfection of F9 teratocarcinoma cells was carried out employing a similar method except the cells were incubated for 12 hours in the presence of the DNA precipitates, and the RA was added at 1 μM for another 24 hours before harvesting the cells. 2, 5, and 4 μg of the reporter, pRAS-βGAL, and pUC19 were used, respectively.\n(§2) The above strategies were used to test both in vivo transactivation and in vitro DNA-binding of these artificial HREs for TRβ, RARα, and VDR. […]"}, "[2]": {"target": "T4, Thyroid hormone receptor beta (TRβ), in CV-1 cells (Homo sapiens, UniProt P10828 P10828:1-461)", "T4 sequence": "T1 sequence (P10828 1-461)", "experiment": "cell_activity; T3 100 nM, CV-1", "conditions": "tags: pRShTRβ; label: 32P; 5'-agct overhangs", "experimental": "as §1, §2"}},
  "data": [
    {"molecule": "DR-4: perfect tandem repeat of AGGTCA hexamers separated by 4 nucleotides (SEQ ID NO:27) (AGCTTCAGGTCACAGGAGGTCAGAGAGCT; DNA, backbone not given here; double-stranded DNA response element with agct overhangs, cloned into reporter)", "values": [
      {"measurement": "TRβ binding to labeled oligonucleotide probe", "setting": "TRβ", "result": "specific protein-DNA complex"},
      {"measurement": "RA response (in words)", "setting": "RARα", "result": "clear activity"}
    ]},
    {"molecule": "βRE4: construct containing a single copy of either the 5′- or 3′- half site (SEQ ID NO:8) (AAGCTTCGAAAGTTCACTCGCATAGCTT; listed as DNA, chemistry not given here)", "values": [
      {"measurement": "function of single half-site constructs", "setting": "RAR", "result": "functional only upon cotransfection of RAR expression vectors"}
    ]},
    {"molecule": "βRE5: construct containing a single copy of either the 5′- or 3′- half site (SEQ ID NO:9) (AAGCTTAAGGGTTCACCGAGCTT; listed as DNA, chemistry not given here)", "values": [
      {"measurement": "function of single half-site constructs", "setting": "RAR", "result": "functional only upon cotransfection of RAR expression vectors"}
    ]},
    {"molecule": "B1", "values": [
      {"measurement": "activity", "setting": "[1]", "result": 8.3, "unit": "fold induction"}
    ]},
    {"molecule": "B2", "values": [
      {"measurement": "activity", "setting": "[2]", "result": 22, "unit": "fold induction"}
    ]}
  ]
}
